Experimental data as given in publication PMC3488005, “A yeast expression system for functional and pharmacological studies of the malaria parasite Ca^2+/H^+ antiporter” (Malaria Journal, 2012).

Columns and labels:
PfCHA = target: T1, PfCHA (Plasmodium falciparum, UniProt C6KSN3); assay: whole-cell apoaequorin luminescence of cytosolic Ca2+ (AUC […]-16 s), 96-well; type: cell-based
T1 construct: gene PF3D7_0603500; full-length ORF (about 1321 bp, approx. 49 kDa) in pGREG505 (GAL1 promoter), expressed in S. cerevisiae vcx1 knock-out (Y03825), vacuole membrane; apoaequorin co-expressed as reporter
T1 sequence (C6KSN3 1-441): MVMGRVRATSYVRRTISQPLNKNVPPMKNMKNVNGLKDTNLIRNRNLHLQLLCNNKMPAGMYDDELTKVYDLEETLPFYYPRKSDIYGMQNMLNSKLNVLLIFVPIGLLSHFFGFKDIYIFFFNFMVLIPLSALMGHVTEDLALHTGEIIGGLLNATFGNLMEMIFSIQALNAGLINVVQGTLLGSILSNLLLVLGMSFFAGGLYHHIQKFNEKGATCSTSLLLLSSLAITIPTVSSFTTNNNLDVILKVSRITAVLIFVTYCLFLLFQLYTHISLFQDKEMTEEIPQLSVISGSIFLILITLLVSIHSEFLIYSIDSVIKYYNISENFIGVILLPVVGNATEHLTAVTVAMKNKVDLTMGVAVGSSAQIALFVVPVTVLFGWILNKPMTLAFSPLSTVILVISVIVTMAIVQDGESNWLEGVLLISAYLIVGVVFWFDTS

Vcx1p (VCX1) = target: T2, Vcx1p (VCX1) (Saccharomyces cerevisiae, UniProt Q99385); assay: as above; type: cell-based; settings: read-out: concentrations at which their transport was inhibited by 50%
T2 construct: full-length gene (1236 bp) in pGREG505 (GAL1 promoter), re-expressed in S. cerevisiae vcx1 knock-out (Y03825); apoaequorin co-expressed as reporter
T2 sequence (Q99385 1-411): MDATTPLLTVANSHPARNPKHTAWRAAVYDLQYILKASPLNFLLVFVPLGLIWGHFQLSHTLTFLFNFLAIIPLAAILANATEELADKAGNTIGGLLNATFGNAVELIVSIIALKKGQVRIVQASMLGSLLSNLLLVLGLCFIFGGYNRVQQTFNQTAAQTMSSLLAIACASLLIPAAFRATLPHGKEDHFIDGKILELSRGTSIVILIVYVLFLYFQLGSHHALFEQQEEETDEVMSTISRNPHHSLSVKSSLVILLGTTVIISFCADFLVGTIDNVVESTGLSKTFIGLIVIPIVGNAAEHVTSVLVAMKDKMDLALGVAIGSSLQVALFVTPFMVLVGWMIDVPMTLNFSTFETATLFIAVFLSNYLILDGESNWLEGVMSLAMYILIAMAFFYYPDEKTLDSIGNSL

N=C(N)SCCc1ccc(OCc2ccc([N+](=O)[O-])cc2)cc1 [KB-R7943]
IC50 (PfCHA): 17.5 µM | IC50 (Vcx1p (VCX1)): 12.5 µM
